Measured values as given in patent US3991202A, “Imidazolium salts” (Janssen Pharmaceutica N.V., priority 1974, dated 1976).

Key:
Assay in all cases: Antifungal growth inhibition in Sabouraud's liquid medium
Type in all cases: cell-based
Microsporum canis = settings: M.c., tested at 100, 10, 1 μg/ml; for MIC: Microsporum canis, 336 h, read-out: Concentrations in μg/ml for 100% Inhibition of Growth
Protocol: (§1) Tests for the control of fungal organisms were performed using Sabouraud's liquid medium (1 g. of neopeptone Difco and 2 g. of glucose Difco per 100 ml. distilled water) in test tubes, each containing 4.5 ml. of liquid medium, autoclaved at 120° C for 15 minutes. The imidazolium salts were prepared for testing by dissolving in 50% ethanol to a concentration of 20 mg./ml. and thereafter diluting with sterile distilled water to obtain a concentration of 10 mg./ml. Successive decimal dilutions were then made with sterile distilled water to prepare a series of test solutions. In carrying out the test, 0.5 ml. of one of the test solutions is added to 4.5 ml. of Sabouraud's liquid medium to obtain a test medium. In this manner, from appropriate test solution, test media containing 100 μg, 10 μg and 1 μg of imidazolium salt per milliliter of medium were obtained.
(§2) Control tubes were prepared by adding 0.5 ml. of sterile distilled water to 4.5 ml. of medium. Ethanol was also added to simulate the amount which would be present in the test media. Filamentous fungi were incubated at 25° C for two to three weeks. A square block of side 2 mm. was excised and inoculated into the liquid medium. A 3-day old culture on Sabouraud's liquid medium was used for yeasts. The inoculum was 0.05 ml. per tube. All cultures were incubated at 25° C for 14 days.

Trichophyton rubrum = settings: Tr.r., tested at 100, 10, 1 μg/ml; for MIC: Trichophyton rubrum, 336 h, read-out: Concentrations in μg/ml for 100% Inhibition of Growth
Protocol: as §1, §2

[1] = test system: Ctenomyces mentagrophytes; settings: Ct.m., tested at 100, 10, 1 μg/ml; for MIC: Trichophyton mentagrophytes, 336 h, read-out: Concentrations in μg/ml for 100% Inhibition of Growth
Protocol: as §1, §2

Cryptococcus neoformans = settings: Cr.n., tested at 100, 10, 1 μg/ml; for MIC: Cryptococcus neoformans, 336 h, read-out: Concentrations in μg/ml for 100% Inhibition of Growth
Protocol: as §1, §2

O=C(C[n+]1ccn(CC(OCc2ccc(Cl)cc2Cl)c2ccc(Cl)cc2)c1)c1ccc(F)cc1.[Cl-] (stereo not drawn) [pClC6H4/CH2C6H32,4(Cl)2/CH2COC6H4pF, 1-[p-chloro-β-(2,4-dichlorobenzyloxy)phenethyl]-3-(p-fluorophenacyl)imidazolium chloride]
MIC (Microsporum canis): 10 µg/mL
MIC (Trichophyton rubrum): 10 µg/mL
MIC [1]: 10 µg/mL
MIC (Cryptococcus neoformans): 10 µg/mL

Clc1ccc(COC(C[n+]2ccn(CC=Cc3ccccc3)c2)c2ccc(Cl)cc2Cl)c(Cl)c1.[Cl-] (stereo not drawn) [CH2CHCHC6H5, 1-Cinnamyl-3-[2,4-dichloro-β-(2,4-dichlorobenzyloxy)phenethyl]imidazolium chloride]
MIC (Microsporum canis): 10 µg/mL
MIC (Trichophyton rubrum): 1 µg/mL
MIC [1]: 10 µg/mL
MIC (Cryptococcus neoformans): 100 µg/mL

Clc1ccc(C=CCn2cc[n+](CC(OCc3ccc(Cl)cc3Cl)c3ccc(Cl)cc3Cl)c2)c(Cl)c1.[Cl-] (stereo not drawn) [CH2CHCHC6H3s,4(Cl)2, 1-(2,4-dichlorocinnamyl)-3-[2,4-dichloro-β-(2,4-dichlorobenzyloxy)phenethyl]-imidazolium chloride]
MIC (Microsporum canis): 10 µg/mL
MIC (Trichophyton rubrum): 10 µg/mL
MIC [1]: 1 µg/mL
MIC (Cryptococcus neoformans): 10 µg/mL

Cc1cccc(C)c1N(C)C(=O)C[n+]1ccn(CC(OCc2ccc(Cl)cc2Cl)c2ccc(Cl)cc2Cl)c1 (stereo not shown)
MIC (Microsporum canis): 10 µg/mL
MIC (Trichophyton rubrum): 1 µg/mL
MIC [1]: 10 µg/mL
MIC (Cryptococcus neoformans): 10 µg/mL

OC(C[n+]1ccn(CC(OCc2c(Cl)cccc2Cl)c2ccc(Cl)cc2Cl)c1)c1ccc(Cl)cc1 (stereo not shown) [2,4(Cl)2C6H3/drawing 66/CH2CHOHC6H4pCl]
MIC (Microsporum canis): 10 µg/mL
MIC (Trichophyton rubrum): 1 µg/mL
MIC [1]: 10 µg/mL
MIC (Cryptococcus neoformans): 10 µg/mL

Cc1cccc(Cl)c1CNC(=O)C(C)[n+]1ccn(CC(OCc2ccc(Cl)cc2Cl)c2ccc(Cl)cc2Cl)c1 (stereo not shown)
MIC (Microsporum canis): 1 µg/mL
MIC (Trichophyton rubrum): 1 µg/mL
MIC [1]: 1 µg/mL
MIC (Cryptococcus neoformans): 100 µg/mL

O=C(Cn1cc[n+](CC(OCc2ccc(Cl)cc2Cl)c2ccc(Cl)cc2Cl)c1)c1ccc(Cl)cc1.[Br-] (stereo not drawn) [CH2COC6H4pCl, 1-(p-chlorobenzoylmethyl)-3-[2,4-dichloro-β-(2,4-dichlorobenzyloxy)phenethyl]imidazolium bromide]
MIC (Microsporum canis): 1 µg/mL
MIC (Trichophyton rubrum): 1 µg/mL
MIC [1]: 1 µg/mL
MIC (Cryptococcus neoformans): 1 µg/mL

OC(C[n+]1ccn(CC(OCc2ccc(Cl)cc2)c2ccc(Cl)cc2Cl)c1)c1ccc(Cl)cc1 (stereo not shown) [2,4(Cl)2C6H3/drawing 65/CH2CHOHC6H4pCl]
MIC (Microsporum canis): 1 µg/mL
MIC (Trichophyton rubrum): 1 µg/mL
MIC [1]: 1 µg/mL
MIC (Cryptococcus neoformans): 100 µg/mL

O=C(CCn1cc[n+](CC(OCc2ccc(Cl)cc2Cl)c2ccc(Cl)cc2Cl)c1)c1ccc(Br)cc1.[Cl-] (stereo not drawn) [(CH2)2COC6H4pBr, 1-[2-(p-Bromobenzoyl)ethyl]-3-[2,4-dichloro-β-(2,4-dichlorobenzyloxy)phenethyl]imidazolium chloride]
MIC (Microsporum canis): 10 µg/mL
MIC (Trichophyton rubrum): 1 µg/mL
MIC [1]: 1 µg/mL
MIC (Cryptococcus neoformans): 1 µg/mL

Cc1ccccc1NC(=O)C[n+]1ccn(CC(OCc2ccc(Cl)cc2)c2ccc(Cl)cc2Cl)c1 (stereo not drawn) [2,4(Cl)2C6H3/CH2C6H4pCl/CH2CONHoCH3, 1-[2,4-Dichloro-β-(p-chlorobenzyloxy)phenethyl]-3-(N-o-tolylcarbamoymethyl)imidazolium cholride]
MIC (Microsporum canis): 10 µg/mL
MIC (Trichophyton rubrum): 1 µg/mL
MIC [1]: 1 µg/mL
MIC (Cryptococcus neoformans): 10 µg/mL

O=C(C[n+]1ccn(CC(OCc2ccc(Cl)cc2)c2ccc(Cl)cc2)c1)c1ccc(F)cc1 (stereo not drawn) [pClC6H4/CH2C6H4pCl/CH2COC6H4pF, 1-[p-Chloro-β-(p-chlorobenzyloxy)phenethyl]-3-(p-flurophenacyl)imidazolium chloride]
MIC (Microsporum canis): 10 µg/mL
MIC (Trichophyton rubrum): 10 µg/mL
MIC [1]: 10 µg/mL
MIC (Cryptococcus neoformans): 10 µg/mL

C=CCOC(Cn1cc[n+](CC(=O)c2ccc(F)cc2)c1)c1ccc(Cl)cc1Cl (stereo not drawn) [2,4(Cl)2C6H3/CH2CHCH2/CH2COC6H4pF, 1-[β-(alloyloxy)-2,4-dichlorophenethyl]-3-(p-fluorophenacyl)imidazolium chloride]
MIC (Microsporum canis): 10 µg/mL
MIC (Trichophyton rubrum): 10 µg/mL
MIC [1]: 10 µg/mL
MIC (Cryptococcus neoformans): 100 µg/mL

O=C(C[n+]1ccn(CC(OCc2ccc(Cl)cc2Cl)c2ccc(Cl)cc2Cl)c1)Nc1ccccc1Oc1ccccc1 (stereo not drawn) [CH2CONHC6H4oOPh, 1-[2,4-dichloro-β-(2,4-dichlorobenzyloxy)phenethyl]-3-[N-(o-phenoxyphenyl)carbamoylmethyl]imidazolium chloride hydrate]
MIC (Microsporum canis): 1 µg/mL
MIC (Trichophyton rubrum): 1 µg/mL
MIC [1]: 10 µg/mL
MIC (Cryptococcus neoformans): 100 µg/mL

COc1cccc(C(=O)C[n+]2ccn(CC(OCc3ccc(Cl)cc3Cl)c3ccc(Cl)cc3Cl)c2)c1.[Br-] (stereo not drawn) [CH2COC6H4mOCH3, 1-[2,4-dichloro-β-(2,4-dichlorobenzyloxy)phenethyl]-3-(m-methoxyphenacyl)imidazolium bromide]
MIC (Microsporum canis): 10 µg/mL
MIC (Trichophyton rubrum): 1 µg/mL
MIC [1]: 1 µg/mL
MIC (Cryptococcus neoformans): 10 µg/mL

COc1ccc(C(=O)C[n+]2ccn(CC(OCc3ccc(Cl)cc3Cl)c3ccc(Cl)cc3Cl)c2)cc1.[Br-] (stereo not drawn) [CH2COC6H4p(OCH3), 1-[2,4-Dichloro-β-(2,4-dichlorobenzyloxy)phenethyl]-3-(p-methoxyphenacyl)imidazolium bromide]
MIC (Microsporum canis): 10 µg/mL
MIC (Trichophyton rubrum): 1 µg/mL
MIC [1]: 10 µg/mL
MIC (Cryptococcus neoformans): 10 µg/mL

CCCCCCCC[n+]1ccn(CC(OCc2ccc(Cl)cc2Cl)c2ccc(Cl)cc2Cl)c1.[Br-] (stereo not drawn) [nC8H17, 1-[2,4-dichloro-β-(2,4-dichlorobenzyloxy)phenethyl]3-n-octylimidazolium bromide]
MIC (Microsporum canis): 10 µg/mL
MIC (Trichophyton rubrum): 1 µg/mL
MIC [1]: 10 µg/mL
MIC (Cryptococcus neoformans): 100 µg/mL

O=C(Cn1cc[n+](CC(OCc2ccc(Cl)cc2Cl)c2ccc(Cl)cc2Cl)c1)c1ccc(Cl)cc1Cl.[Cl-] (stereo not drawn) [CH2COC6H32,4(Cl)2, 1-(2,4-dichlorobenzoylmethyl)-3-[2,4-dichloro-β-(2,4-dichlorobenzyloxy)phenethyl]imidazolium chloride]
MIC (Microsporum canis): 10 µg/mL
MIC (Trichophyton rubrum): 1 µg/mL
MIC [1]: 1 µg/mL
MIC (Cryptococcus neoformans): 1 µg/mL

1-(β-butoxy2,4-dichlorophenethyl)-3-[p-chloro-a-(p-fluorophenyl)benzyl]imidazolium chloride
Concentrations in μg/ml for 100% Inhibition of Growth (Microsporum canis): 10 µg/mL
Concentrations in μg/ml for 100% Inhibition of Growth (Trichophyton rubrum): 10 µg/mL
Concentrations in μg/ml for 100% Inhibition of Growth [1]: 10 µg/mL
Concentrations in μg/ml for 100% Inhibition of Growth (Cryptococcus neoformans): 100 µg/mL

O=C(CCn1cc[n+](CC(OCc2ccc(Cl)cc2Cl)c2ccc(Cl)cc2Cl)c1)c1ccc(Cl)cc1.[Cl-] (stereo not drawn) [(CH2)2COC6H4pCl, 1-[2-(p-Chlorobenzoyl)ethyl]-3-[2,4-dichloro-β-(2,4dichlorobenzyloxy)phenethyl]imidazolium chloride]
MIC (Microsporum canis): 1 µg/mL
MIC (Trichophyton rubrum): 1 µg/mL
MIC [1]: 1 µg/mL
MIC (Cryptococcus neoformans): 1 µg/mL

O=C(C[n+]1ccn(CC(OCc2c(Cl)cccc2Cl)c2ccc(Cl)cc2Cl)c1)c1ccc(F)cc1 (stereo not shown) [2,4(Cl)2C6H3/drawing 66/CH2COC6H4pF]
MIC (Microsporum canis): 10 µg/mL
MIC (Trichophyton rubrum): 1 µg/mL
MIC [1]: 10 µg/mL
MIC (Cryptococcus neoformans): 10 µg/mL

CC(C(=O)Nc1ccccc1Cl)[n+]1ccn(CC(OCc2ccc(Cl)cc2Cl)c2ccc(Cl)cc2Cl)c1 (stereo not shown)
MIC (Microsporum canis): 10 µg/mL
MIC (Trichophyton rubrum): 1 µg/mL
MIC [1]: 10 µg/mL
MIC (Cryptococcus neoformans): 100 µg/mL

Clc1ccc(NCCn2cc[n+](CC(OCc3ccc(Cl)cc3Cl)c3ccc(Cl)cc3Cl)c2)cc1.[Br-] (stereo not drawn) [(CH2)2NHC6H4pCl, 1-[2-(p-chloroanilino)ethyl]-3-[2,4-dichloro-β-(2,4-dichlorobenzyloxy)phenethyl]imidazolium bromide]
MIC (Microsporum canis): 10 µg/mL
MIC (Trichophyton rubrum): 10 µg/mL
MIC [1]: 10 µg/mL
MIC (Cryptococcus neoformans): 1 µg/mL
